This passage reports IC50 results from patent US8808702B2, “Sulfide, sulfoxide and sulfone chalcone analogues, derivatives thereof and therapeutic uses thereof” (Temple University-of the Commonwealth System of Higher …, priority 2006, dated 2014).

For assay [1], the system named is DU145 (prostate cancer). Briefly: Effect of compounds on tumor cell lines (assay of Latham et al.), DU145. In kind it is cell-based. The note with it: DU145 cells, 96 hours after treatment, 1 μM to 100 μM; read-out: DU 145 potency (IC50). An outline of the steps:
(§1)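 After 96 h of exposure to compound (1–100 μM in DMSO; one compound at 0.1–100 μM), effects were scored by inverted-microscope inspection, with trypan blue viable counts by hemacytometer when required. Cells were seeded at 2.5×10^4 per well and dosed 24 h after plating.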

The test system of assay [2] is K562 (chronic myelogenous leukaemia). Nature of the assay: Effect of compounds on tumor cell lines (assay of Latham et al.), K562. The format is cell-based. As to conditions: K562 cells, 96 hours after treatment, 1 μM to 100 μM; read-out: K 562 potency (IC50). An outline of the steps: as §1

Molecules are shown by their SMILES. Some results are limits rather than exact numbers.

As usually defined, the IC50 is the concentration at which inhibition is half-maximal. For `O=C(C(=Cc1ccc(Cl)cc1)SCc1ccccc1Cl)c1ccc(Cl)cc1` [Example 130], the results for the IC50 in assay [1] and in assay [2] were 10 to 25 µM and 1 to 10 µM, respectively.

For the molecule `CCOc1ccc(C=C(SCc2ccccc2Cl)C(=O)c2ccc(Cl)cc2)cc1OC` [Example 131], the IC50 lay in the range of 50 to 100 µM in assay [1] and 1 to 10 µM in assay [2].

For `O=C(C(=Cc1ccc(O)c([N+](=O)[O-])c1)SCc1ccccc1Cl)c1ccc(Cl)cc1` [Example 132], the IC50 in assay [1] and in assay [2] was 10 to 25 µM in each case.

In the case of `COc1ccccc1C=C(SCc1ccccc1F)C(=O)c1ccc(Cl)cc1` [Example 133], the IC50 in assay [1] fell in the range of 10 to 25 µM; in assay [2], 1 to 10 µM.

Take `Cc1ccsc1C=C(SCc1ccccc1F)C(=O)c1ccc(Cl)cc1` [Example 134]: the IC50 in assay [1] and in assay [2] was 50 to 100 µM each time.

Take `O=C(C(=Cc1c(O)cc(O)cc1O)SCc1ccc(Cl)c(Cl)c1)c1ccc(Cl)cc1` [Example 136]: the IC50 in assay [1] and in assay [2] was 25 to 50 µM each time.

Consider `COc1cc(OC)c(C=C(SCc2ccc(Cl)c(Cl)c2)C(=O)c2ccc(Cl)cc2)c(OC)c1` [Example 137], for which the IC50 in assay [1] and in assay [2] was 10 to 25 µM throughout.

Turning to `COc1ccc(OC)c(C=C(SCc2ccc(Cl)c(Cl)c2)C(=O)c2ccc(Cl)cc2)c1` [Example 138], the IC50 in assay [1] and in assay [2] was 10 to 25 µM in each case.

Turning to `O=C(C(=Cc1ccccc1OCc1ccccc1)SCc1ccc(Cl)c(Cl)c1)c1ccc(Cl)cc1` [Example 139], the IC50 in assay [1] and in assay [2] was 10 to 25 µM each time.

On to `CN(C)c1ccc(C=C(SCc2ccc(Cl)c(Cl)c2)C(=O)c2ccc(Cl)cc2)cc1` [Example 142], for which the IC50 in assay [1] and in assay [2] was 50 to 100 µM throughout.

Regarding `CCOc1ccc(C=C(SCc2ccc(Cl)c(Cl)c2)C(=O)c2ccc(Cl)cc2)cc1OC` [Example 143], the IC50 in assay [1] was in the range of 25 to 50 µM; in assay [2], 1 to 10 µM.

`O=C(C(=Cc1ccc(O)cc1)SCc1ccc(Cl)c(Cl)c1)c1ccc(Cl)cc1` [Example 144]: the IC50 in assay [1] and in assay [2] was 1 to 10 µM in each case.

As for `O=C(C(=Cc1ccc(O)cc1O)SCc1cccc(Cl)c1)c1ccc(Br)cc1` [Example 145], the IC50 in assay [1] fell in the range of 50 to 100 µM; in assay [2] it was 25 to 50 µM.

Take `O=C(C(=Cc1ccc(OCc2ccccc2)cc1)SCc1cccc(Cl)c1)c1ccc(Br)cc1` [Example 146]: the IC50 in assay [1] and in assay [2] was 1 to 10 µM throughout.

Turning to `O=C(C(=Cc1cc(Br)c(O)c(Br)c1)SCc1ccc(Br)cc1)c1ccc(Br)cc1` [Example 147], the IC50 was 1 to 10 µM in assay [1] and 10 to 25 µM in assay [2].

Consider `O=C(C(=Cc1cc(Cl)c(O)c(Cl)c1)SCc1ccc(Br)cc1)c1ccc(Br)cc1` [Example 148], for which the IC50 in assay [1] and in assay [2] was 10 to 25 µM each time.

With `Cc1cc(C)cc(C=C(SCc2ccc(Br)cc2)C(=O)c2ccc(Cl)cc2)c1` [Example 149], the IC50 in assay [1] and in assay [2] was 10 to 25 µM throughout.

With `O=C(O)c1ccc(C(=O)C(=Cc2ccc(O)c(Br)c2)SCc2ccc(Br)cc2)cc1` [Example 150], the IC50 in assay [1] and in assay [2] was 25 to 50 µM each time.

Consider `O=C(C(=Cc1ccc(O)c(C(=O)O)c1)SCc1ccc(Br)cc1)c1ccc(Br)cc1` [Example 151], for which the IC50 was 10 to 25 µM in assay [1] and 25 to 50 µM in assay [2].

In the case of `O=C(C(=Cc1ccc([N+](=O)[O-])c(O)c1)SCc1ccc(Br)cc1)c1c(F)c(F)c(F)c(F)c1F` [Example 152], the IC50 was 10 to 25 µM in assay [1] and 1 to 10 µM in assay [2].

Consider `O=C(C(=Cc1ccc([N+](=O)[O-])c(O)c1)SCc1ccc(Br)cc1)c1ccc([N+](=O)[O-])c(Cl)c1` [Example 154], for which the IC50 in assay [1] and in assay [2] was 1 to 10 µM each time.

Regarding `O=C(C(=Cc1ccc([N+](=O)[O-])c(O)c1)SCc1ccc(Br)cc1)c1ccc(Br)cc1` [Example 155], the IC50 in assay [1] lay in the range of 10 to 25 µM; in assay [2], 1 to 10 µM.

Take `O=C(O)c1ccc(C(=O)C(=Cc2ccc([N+](=O)[O-])c(O)c2)SCc2ccc(Br)cc2)cc1` [Example 156]: the IC50 in assay [1] was 10 to 25 µM; in assay [2], 1 to 10 µM.

`N#Cc1ccc(C(=O)C(=Cc2ccc([N+](=O)[O-])c(O)c2)SCc2ccc(Br)cc2)cc1` [Example 157]: the IC50 in assay [1] and in assay [2] was 1 to 10 µM throughout.

`O=C(C(=Cc1ccc([N+](=O)[O-])c(O)c1)SCc1ccc(Br)cc1)c1ccc([N+](=O)[O-])cc1` [Example 158]: the IC50 in assay [1] and in assay [2] was 1 to 10 µM throughout.

Consider `O=C(/C(=C\c1ccc([N+](=O)[O-])c(O)c1)SCc1ccc(Br)cc1)c1ccc(N2CCCC2)cc1` [Example 159], for which the half-inhibitory concentration (IC50) in assay [1] and in assay [2] was > 100 µM each time.

Turning to `O=C(/C(=C\c1ccc([N+](=O)[O-])c(O)c1)SCc1ccc(Br)cc1)c1ccc(C(F)(F)F)cc1` [Example 160], the IC50 in assay [1] and in assay [2] was 1 to 10 µM each time.

On to `O=C(/C(=C\c1ccc([N+](=O)[O-])c(O)c1)SCc1ccc(Br)cc1)c1cc(Cl)ccc1O` [Example 161], for which the IC50 in assay [1] and in assay [2] was 10 to 25 µM each time.

For the molecule `CCN(CC)CCNC(=O)c1c(C)[nH]c(/C=C(/SCc2ccc(Br)cc2)C(=O)c2ccc(Br)cc2)c1C` [Example 162], the IC50 in assay [1] and in assay [2] was 1 to 10 µM in each case.

`CCN(CC)CCNC(=O)c1c(C)[nH]c(/C=C(/SCc2ccc(Br)cc2)C(=O)c2ccc(C(=O)O)cc2)c1C` [Example 163]: the half-inhibitory concentration (IC50) in assay [1] and in assay [2] was 50 to 100 µM each time.

`CN(C)c1ccc(/C=C(/SCc2ccc(Br)cc2)C(=O)c2ccc(C(=O)O)cc2)cc1` [Example 164]: the 50% inhibitory concentration (IC50) in assay [1] fell in the range of 50 to 100 µM; in assay [2] it was 25 to 50 µM.

Consider `O=C(O)c1ccc(C(=O)/C(=C\c2ccc(Br)c([N+](=O)[O-])c2)SCc2ccc(Br)cc2)cc1` [Example 165], for which the IC50 in assay [1] and in assay [2] was 1 to 10 µM each time.

With `O=C(O)c1ccc(C(=O)/C(=C\c2ccc(Br)cc2)SCc2ccc(Br)cc2)cc1` [Example 166], the IC50 in assay [1] and in assay [2] was 1 to 10 µM in each case.

Regarding `Cc1[nH]c(/C=C(/SCc2ccc(Br)cc2)C(=O)c2ccc(Br)cc2)c(C)c1C(=O)O` [Example 167], the IC50 in assay [1] and in assay [2] was 50 to 100 µM each time.

For the molecule `O=C(O)c1ccc(C(=O)/C(=C\c2ccc(Cl)c([N+](=O)[O-])c2)SCc2ccc(Br)cc2)cc1` [Example 168], the IC50 is 1 to 10 µM in assay [1] and ≤ 1 µM in assay [2].

On to `O=C(/C(=C\c1ccc(Cl)cc1)SCc1ccc(Br)cc1)c1ccccc1Cl` [Example 169], for which the IC50 in assay [1] fell in the range of 25 to 50 µM; in assay [2] it was 1 to 10 µM.

For `CCOC(=O)c1c(C)[nH]c(/C=C(/SCc2ccc(Br)cc2)C(=O)c2ccc(Br)cc2)c1C` [Example 170], the IC50 in assay [1] lay within 50 to 100 µM; in assay [2], 25 to 50 µM.

On to `O=C(O)c1ccc(C(=O)/C(=C\c2ccc(F)c([N+](=O)[O-])c2)SCc2ccc(Br)cc2)cc1` [Example 172], for which the IC50 in assay [1] and in assay [2] was 1 to 10 µM throughout.

In the case of `O=C(/C(=C\c1cc(I)c(O)c(I)c1)SCc1ccc(Br)cc1)c1ccc(Br)cc1` [Example 173], the IC50 in assay [1] and in assay [2] was 1 to 10 µM each time.

Consider `COc1cc(/C=C(/SCc2ccc(Br)cc2)C(=O)c2ccc(Br)cc2)cc([N+](=O)[O-])c1O` [Example 174], for which the IC50 in assay [1] and in assay [2] was 25 to 50 µM throughout.

Consider `O=C(/C(=C\c1ccc(O)c([N+](=O)[O-])c1)SCc1ccc(Br)cc1)c1c(F)c(F)c(F)c(F)c1F` [Example 175], for which the IC50 in assay [1] and in assay [2] was 10 to 25 µM each time.

On to `O=C(/C(=C\c1ccc(O)c([N+](=O)[O-])c1)SCc1ccc(Br)cc1)c1ccc(Cl)cc1Cl` [Example 176], for which the IC50 in assay [1] was in the range of 10 to 25 µM; in assay [2] it was 1 to 10 µM.

For the molecule `O=C(/C(=C\c1ccc(O)c([N+](=O)[O-])c1)SCc1ccc(Br)cc1)c1ccc(O)cc1O` [Example 177], the IC50 was > 100 µM in assay [1] and 50 to 100 µM in assay [2].

Turning to `COc1cc(C(=O)/C(=C\c2ccc(O)c([N+](=O)[O-])c2)SCc2ccc(Br)cc2)cc(OC)c1OC` [Example 178], the IC50 in assay [1] and in assay [2] was 1 to 10 µM in each case.

Turning to `O=C(/C(=C\c1ccc(O)c([N+](=O)[O-])c1)SCc1ccc(Br)cc1)c1ccc([N+](=O)[O-])c(Cl)c1` [Example 179], the IC50 in assay [1] and in assay [2] was 1 to 10 µM throughout.

With `O=C(O)c1ccc(C(=O)/C(=C\c2ccc(O)c([N+](=O)[O-])c2)SCc2ccc(Br)cc2)cc1` [Example 181], the IC50 in assay [1] and in assay [2] was 50 to 100 µM each time.

Turning to `N#Cc1ccc(C(=O)/C(=C\c2ccc(O)c([N+](=O)[O-])c2)SCc2ccc(Br)cc2)cc1` [Example 182], the IC50 in assay [1] and in assay [2] was 10 to 25 µM throughout.

With `COc1ccc(C(=O)/C(=C\c2ccc(O)c([N+](=O)[O-])c2)SCc2ccc(Br)cc2)cc1` [Example 183], the 50% inhibitory concentration (IC50) in assay [1] and in assay [2] was 10 to 25 µM in each case.

In the case of `O=C(/C(=C\c1ccc(O)c([N+](=O)[O-])c1)SCc1ccc(Br)cc1)c1ccc([N+](=O)[O-])cc1` [Example 184], the IC50 in assay [1] and in assay [2] was 10 to 25 µM throughout.

For the molecule `O=C(/C(=C\c1ccc(O)c([N+](=O)[O-])c1)SCc1ccc(Br)cc1)c1ccc(N2CCCC2)cc1` [Example 185], the IC50 in assay [1] and in assay [2] was > 100 µM throughout.

On to `O=C(/C(=C\c1ccc(O)c([N+](=O)[O-])c1)SCc1ccc(Br)cc1)c1ccc(C(F)(F)F)cc1` [Example 186], for which the IC50 was in the range of 10 to 25 µM in assay [1] and 1 to 10 µM in assay [2].

As to `O=C(/C(=C\c1ccc(O)c([N+](=O)[O-])c1)SCc1ccc(Br)cc1)c1cc(Cl)ccc1O` [Example 187], the half-inhibitory concentration (IC50) lay within 25 to 50 µM in assay [1] and 10 to 25 µM in assay [2].
